Measured values published in patent US20120040950A1, “ISOINDOLINONE INHIBITORS OF PHOSPHATIDYLINOSITOL 3-KINASE” (VERTEX PHARMACEUTICALS INCORPORATED, priority 2009, published 2012).

Columns and labels:
[1] = biological target: PI3K-gamma (Homo sapiens, UniProt P48736); test: PI3K Inhibition Assay; type: biochemical
Procedure: Using a Biomek FX from Beckman Coulter, 1.5 μL of each of ten 2.5-fold serial dilutions of a compound of the invention in 100% DMSO was added to an individual well (hereafter, “test well”) in a 96 well polystyrene plate [Corning, Costar Item No. 3697]. One test well also contained 1.5 μL of DMSO with no compound. […] Using a Titertek Multidrop, 50 μL of Reaction Mix [100 mM HEPES pH 7.5, 50 mM NaCl, 10 mM DTT, 0.2 mg/mL BSA, 60 μM phosphatidylinositol(4,5)bisphosphate diC16 (PI(4,5)P2; Avanti Polar Lipids, Cat. No. 840046P) and PI3K isoform of interest (see Table 3 for isoform concentrations)] was added to each well. To initiate the reaction, 50 μL of ATP Mix [20 mM MgCl2, 6 μM ATP (100 μCi/μmole ^33P-ATP)] was added each well, followed by incubating the wells for 30 min. at 25° C. Final concentrations in each well were 50 mM HEPES 7.5, 10 mM MgCl2, 25 mM NaCl, 5 mM DTT, 0.1 mg/mL BSA, 30 μM PI(4,5)P2, 3 μM ATP, and the PI3K isoform of interest (see Table 2). Final compound concentrations in each well ranged from 10 μM to 1 nM.
After incubation, the reactions in each well were quenched by addition of 50 μL of stop solution [30% TCA/Water, 10 mM ATP]. […] 50 μL of scintillation fluid was added to each well and the plate read on a Perkin-Elmer TopCount™ NXT liquid scintillation counter to obtain ^33P-counts representing inhibition values. […]

[2] = test system: activated microglia; test: Microglia Activation Assay (LPS-injected mice, Iba1 IHC of brain); type: in vivo, Female C57B1/6J mice; conditions: 10 mg/kg b.i.d. orally by gavage, 4 doses, LPS 0.5 mg/kg i.p. for three days
Procedure: Female C57B1/6J mice (7 weeks old) were purchased from Jackson Laboratory (Maine, US). Animals were acclimated for a week at standard laboratory conditions (12 hrs light cycles) with free access to rodent chow and water. All procedures were in accordance with the National Institute of Health Guidelines for the care and Use of Laboratory Animals and were approved by IACUCC. The endotoxin Lipopolysaccharide (LPS) (E. coli 011:B4, cat#437627) was purchased from Calbiochem. LPS was dissolved in PBS buffer at a concentration of 0.05 mg/ml and stored in frozen aliquots. At the start of the study, mice received an intraperitoneal (i.p.) injection of LPS (0.5 mg/kg) for three consecutive days. Therapeutic treatment with VRT compounds was started together with the 2nd LPS administration and maintained throughout the study. Compound was dosed twice a day orally by gavage for a total of 4 doses. 24 h following the last LPS injection, and 2 hrs following the last VRT dose, animals were sacrificed by CO2 asphyxiation. […]
Digital images were captured using the Aperio ScanScope Slide Scanner (Aperio Technologies, Vista, Calif.). Images were captured at 20× optical magnification, and analyzed using the software Definiens Developer XD. […] Compound efficacy was calculated as percent decrease in number of activated microglia relative to vehicle control.

Chain of PI3K-gamma (P48736 whole entry, species assumed, canonical isoform): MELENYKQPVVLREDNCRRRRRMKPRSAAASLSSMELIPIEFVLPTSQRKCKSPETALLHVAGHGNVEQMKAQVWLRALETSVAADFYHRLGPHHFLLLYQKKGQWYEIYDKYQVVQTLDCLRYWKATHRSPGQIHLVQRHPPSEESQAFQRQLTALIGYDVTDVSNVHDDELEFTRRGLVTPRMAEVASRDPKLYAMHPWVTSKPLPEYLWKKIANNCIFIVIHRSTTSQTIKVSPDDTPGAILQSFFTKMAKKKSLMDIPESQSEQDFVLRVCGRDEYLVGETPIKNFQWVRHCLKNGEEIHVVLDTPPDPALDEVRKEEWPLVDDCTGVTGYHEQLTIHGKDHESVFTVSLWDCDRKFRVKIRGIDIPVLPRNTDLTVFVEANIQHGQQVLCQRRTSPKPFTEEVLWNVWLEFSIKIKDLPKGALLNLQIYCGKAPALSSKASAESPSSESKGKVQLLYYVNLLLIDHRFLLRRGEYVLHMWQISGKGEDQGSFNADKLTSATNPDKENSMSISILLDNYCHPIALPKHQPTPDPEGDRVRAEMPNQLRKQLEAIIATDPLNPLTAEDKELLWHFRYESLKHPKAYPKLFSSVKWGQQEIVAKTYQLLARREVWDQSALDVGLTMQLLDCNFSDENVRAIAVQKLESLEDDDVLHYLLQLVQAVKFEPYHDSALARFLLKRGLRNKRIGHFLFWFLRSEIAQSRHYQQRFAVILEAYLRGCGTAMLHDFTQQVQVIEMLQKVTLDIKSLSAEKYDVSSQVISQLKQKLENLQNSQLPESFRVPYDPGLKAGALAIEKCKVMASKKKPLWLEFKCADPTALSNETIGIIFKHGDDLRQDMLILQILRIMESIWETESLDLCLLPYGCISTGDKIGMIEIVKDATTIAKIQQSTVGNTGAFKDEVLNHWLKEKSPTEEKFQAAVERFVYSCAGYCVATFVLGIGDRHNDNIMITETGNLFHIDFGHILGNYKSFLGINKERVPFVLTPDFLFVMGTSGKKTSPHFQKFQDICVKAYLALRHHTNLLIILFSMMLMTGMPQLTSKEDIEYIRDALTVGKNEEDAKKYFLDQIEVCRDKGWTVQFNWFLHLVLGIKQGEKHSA

| Ki [1] | SMILES | percent decrease in number of activated microglia relative to vehicle control [2] |
| --- | --- | --- |
| 500 to 2500 nM | COc1cc(-c2nc3c(cc2C)C(=O)N(c2cn[nH]c2)C3)cnc1OC [Compound 238, 2-(5,6-dimethoxypyridin-3-yl)-3-methyl-6-(1H-pyrazol-4-yl)-6,7-dihydro-5H-pyrrolo[3,4-b]pyridin-5-one] | – |
| – | Cc1cc(-c2cncc(OC(F)F)c2)nc2c1C(=O)N(c1cnn(CC(F)(F)F)c1)C2 [Compound 271] | 39% |
